Test results taken from patent US20100323990A1, “SHIP 1 MODULATOR PRODRUGS” (THE UNIVERSITY OF BRITISH COLUMBIA, priority 2006, published 2010).

What was measured:
LNCaP cells = test: PKB activation in LNCaP cells, which do not express SHIP; format: cell-based, human; conditions: AQX-016A at doses up to 60 μM
Description: The ability of AQX-016A to inhibit activation of PIP3-dependent downstream signalling proteins in SHIP^+/+ vs SHIP^−/− was assessed. LPS stimulation of macrophages results in PKB phosphorylation. […] Similar protein loading was confirmed by reblotting with either antibodies to PKB or Grb2. […] Thus, AQX-016A inhibits PIP3-regulated intracellular signal transduction events in SHIP expressing hematopoietic cells, but not in SHIP-deficient hematopoietic or non-hematopoietic cells.

SHIP enzyme = test: In vitro SHIP enzyme assay (Assay 1), phosphate release by Malachite Green; format: biochemical; as to Assay 1: SHIP enzyme assay, desired activity: key: a ‘+’ indicates a positive result for desired activity; a ‘−’ indicates a negative result for desired activity
Description: Assay 1) In vitro testing in a SHIP enzyme assay. Test compounds were dissolved in a suitable solvent (e.g. EtOH, DMSO and others) and diluted into aqueous buffer (20 mM Tris HCl, pH 7.5 and 10 mM MgCl2). SHIP enzyme assays were performed in 96-well microtitre plates with 10 ng of enzyme/well in a total volume of 25 μL of 20 mM Tris HCl, pH 7.5 and 10 mM MgCl2. SHIP enzyme was incubated with test extracts (provided in solvent) or vehicle for 15 min at 23° C. before the addition of 100 μM inositol-1,3,4,5-tetrakisphosphate (Echelon Biosciences Inc, Salt Lake City, Utah). After 20 min at 37° C. and the amount of inorganic phosphate released assessed by the addition of Malachite Green reagent and absorbance measurement at 650 nm. Assay 2) Macrophage TNF-α production. J774.1a macrophage cells were treated with 10 μg/mL of test compound dissolved in solvent (e.g. cyclodextran) for 40 minutes prior to the addition of 100 ng/mL LPS. Culture supernatants were collected after 2 hr and 5 hr for TNF-α determination by ELISA. Assay 3) Macrophage TNF-α NO assay. J774.1a macrophage cells were treated with 10 μg/ml of test compound dissolved in solvent for 40 minutes prior to the addition of LPS. Culture supernatants were collected after 24 hr. for determination of NO concentration using the Griess reagent. Assay 4) Stimulation of mast cells by FcεRI crosslinking. Mast cells were pre-loaded overnight in BMMC medium lacking IL-3 with 0.1 μg/ml anti-DNP IgE (SPE-7, Sigma, Oakville, Ont). For calcium flux measurements, cells were incubated with 2 μM fura 2-acetoxymethyl ester (Molecular Probes, Eugene, Oreg.) in Tyrode's buffer at 23° C. for 45 min. Cells were then washed and incubated in the presence of the test compound 30 min prior to stimulation with the indicated concentration of DNP-human serum albumin (DNP-HSA). Calcium influx was monitored by spectrofluorometry as described previously. For analysis of intracellular signaling, cells were pre-loaded with anti-DNP IgE as above, pre-treated with the test compound for 30 min at 37° C. and stimulated with 20 ng/ml DNP-HSA for 5 min. Total cell lysates were then prepared and analyzed for phospho-PKB, phospho-p38^MAPK, phospho-MAPK, Grb-2 (Cell Signalling, Mississauga, Ont) and SHIP^6 by immunoblot analysis. Assay 5) Mouse acute cutaneous anaphylaxis model. 6-8 week old CD1 mice (University of British Columbia Animal Facility, Vancouver, BC) were sensitized to the hapten DNP by cutaneous application of 25 μL of 0.5% dinitrofluorobenzene (DNFB) (Sigma, Oakville, Ont) in acetone to the shaved abdomen of mice for two consecutive days. 24 hrs later, test substances (dissolved in 10 μL of 1:2 DMSO:MeOH) were painted on the right ear while the left ear received vehicle control. 30 min after drug application, DNFB was applied to both ears to induce mast cell degranulation. A 6 mm punch was taken from the ear and immediately frozen on dry ice for subsequent determination of neutrophil myeloperoxidase (MPO) activity. Assay 6) Mouse endotoxemia model. 6-8 week old C57B16 mice (VCHRI Mammalian Model of Human Disease Core Facility, Vancouver, BC) were orally administered the test compound 30 min prior to an IP injection of 2 mg/kg of LPS (E. Coli serotype 0111:B4, Sigma, Oakville, Ont). Blood was drawn 2 hrs later for determination of plasma TNFα by ELISA. Assay 7) In vitro Mulitple Myeloma (MM) assay. The ability of SHIP activators to reduce tumor cell survival was assessed in MM cell lines treated with the test compound. The lines OPM1, OPM2, MM.1S and RPMI 8226 were plated at a density of 1×10^5 cells/mL in 200 μL of medium with various concentrations of the test compound, and viable cell numbers were determined on day 3 and day 5 by trypan blue exclusion. The lines RPMI 8226 and U266 were plated at a density of 1×10^6 cells/mL in 250 μL of medium with various concentrations of the test compound. At day 4, the medium of each culture was replaced by fresh medium containing the same concentration of test compound. […]

SHIP C2 domain = test: Scintillation proximity assay, C2 domain; format: binding; conditions: C2 domain 10 nM on SPA beads
Description: Compound 100 was radiolabelled with tritium by GE Healthcare (Piscataway, N.J.) to a specific activity of 42 Ci/mmole. Copper chelate (His-Tag) YSi SPA Scintillation Beads (GE ealthcare, Piscataway, N.J.) were diluted in 0.25% BSA/TBS to 1.5 mg/mL and recombinant, His6-tagged protein added at the indicated concentrations: wild-type (1 pM), ΔC2 SHIP enzyme (1 pM) or C2 domain (10 nM). Protein was allowed to bind 1 h at 23° C., and 250 μg of beads were aliquoted per well of a 96-well plate. 5 μCi of [^3H]-Compound 100 was added per well, the plate gently agitated for 30 min and the amount of bead associated radioactivity quantified by counting in a Wallac BetaPlate plate scintillation counter.
Isolated recombinant, His6-tagged C2 domain was expressed and its PI-3,4-P2 binding ability was determined using protein lipid overlay assays. Purified C2 domain was incubated with membrane strips spotted with PI-3,4-P2 and bound protein detected using an anti-His6 antibody. As shown in FIG. 11C the C2 domain bound PI-3,4-P2 and this binding was inhibited by Compound 100, consistent with both Compound 100 and PI-3,4-P2 interacting with the C2 domain at a common binding site.

SHIP enzyme activity in vitro (SHIP enzyme) | Assay 1: SHIP enzyme assay, desired activity (SHIP enzyme; 10 ng enzyme/well, 100 μM inositol-1,3,4,5-tetrakisphosphate) | binding of [3H]-Compound 100 to C2 domain (SHIP C2 domain) | Compound | PKB phosphorylation in LNCaP cells (LNCaP cells)
 |  |  | Cc1cc(O)c(O)c2c1[C@]1(C)CCC3C(C)(C)CCC[C@]3(C)[C@H]1C2 (stereo partly shown) [AQX-016A] | no effect
enhanced SHIP enzyme activity in vitro | + | directly bind the C2 domain | Cc1cc(O)cc2c1[C@]1(C)CCC3C(C)(C)CCC[C@]3(C)[C@H]1C2 (stereo partly shown) [Compound 100] | 
